From patent US12576155B2, “Senolytic and antiinflammatory prodrugs and methods of use thereof” (priority 2019, dated 2026)
Read-outs that look alike come from different tables or passages of the source.

Columns and labels:
[1] = test system: replication-induced senescent mouse embryonic fibroblasts (MEFs) and their non-senescent counterparts; assay: SSK1 metabolism analysis (release of gemcitabine, LC-MS/MS); type: in vitro ADME; conditions: 0.5 μM SSK1; senescent vs non-senescent MEFs; FIG. 1A
Description: To detect the release of gemcitabine from SSK1 in senescent and non-senescent cells, the metabolism analysis was performed as previous reported (Karampelas et al., Mol Pharmaceut 14, 674-685(2017)). Briefly, the senescent and non-senescent cells were incubated with 0.5 μM SSK1 in DMEM medium containing 10% FBS and 1% penicillin-streptomycin for the indicated time. Then the cells slightly washed with water for twice and then harvested. Cold methanol used to extract the compounds and samples were prepared after centrifugation. The concentration of gemcitabine was determined by LC-MS/MS analysis.

[2] = test system: GLB1 knockdown (shGLB1-1 and -2) senescent cells; assay: Cell viability of GLB1 knockdown senescent cells; type: cell-based; conditions: SSK1 0.5 μM; shGLB1-1 and -2 vs shControl
Description: Plasmids used to interfere the expression of GLB1 with short hairpin RNAs (shRNAs) were obtained from Sigma MISSION shRNA. Genetic knockdown was performed according to the manufacturer's protocol.
Lentivirus production, collection, and infection were as described (Zhao et al., Cell Stem Cell 3, 475-479(2008)).
(§1) To test the viability of senescent and non-senescent cells treated with SSK1, cells were stained with a mixture of Hoechst 33342 and propidium iodide (PI) (CA1120, Solarbio) to distinguish living and dead cells. After treatment with the small molecules, the cell culture medium was removed, and the cells were washed once with PBS. Then, the cells were stained according to the manufacturer's protocol, where the final concentrations of Hoechst 33342 and PI were 5 μg/ml and 2 μg/ml in PBS buffer. The plate was incubated at 4° C. for 30 min and observed on a fluorescence microscope or automatic cell imaging system. Viable cells were quantified using a MD Image Xpress Micro XL (Molecular Devices).

p38 MAPK = assay: Western blotting of phos-p38 MAPK in senescent cells; type: cell-based, mouse; conditions: 0.5 μM SSK1, after 36 hours of treatment
Description: Senescent NBF cells were plated and incubated overnight at 37° C. The cells were treated with 0.05 μM gemcitabine or 0.5 μM SSK1 prodrug for the indicated time. Before harvest, cells were washed twice with pre-cooled PBS buffer. Total protein was extracted with lysis buffer (50 mM Tris-HCl (pH 7.5), 137 mM sodium chloride, 1 mM EDTA, 1% Nonidet P-40, 10% glycerol, 0.1 mM sodium orthovanadate, 10 mM sodium pyrophosphate, 20 mM β-glycerophosphate, 50 mM sodium fluoride, 1 mM phenylmethylsulfonyl fluoride), and the protein concentrations were normalized using the BCA Protein Assay Kit (Pierce). Protein samples were mixed with protein loading buffer and incubated at 95° C. for 5 min. Western blotting was performed by using the following antibodies: phospho-specific p38 MAPK (Thr180/Tyr182) (Cell Signaling Technology, CST, catalog number 4511) and p38 (CST, catalog number 8690); phospho-histone H2A.X (Ser139) (CST, catalog number 9718) and histone H2A.X (CST, catalog number 7631). The β-tubulin protein level was also determined as the loading control by using the β-tubulin antibody (CST, catalog number 2128).

[3] = test system: human senescent fibroblasts induced by different stimuli; assay: Cell viability, senescent and non-senescent human embryonic fibroblasts (HEFs); type: cell-based
Description: Human embryonic skin fibroblasts (HEFs) were obtained as previously described. Briefly, human embryonic skin tissues, obtained from aborted tissue with informed patient consent, were minced with forceps and incubated in 1 mg/ml collagenase IV for 1-2 hours at 37° C. After enzyme treatment, cells were collected by centrifugation and resuspended in HEF medium (Dulbecco's modified Eagle's medium (DMEM, Gibco) containing 10% fetal bovine serum (FBS, Ausbian), 1% GlutaMAX (Gibco), 1% Non-Essential Amino Acids (NEAA, Gibco) and 1% penicillin/streptomycin (Gibco). Cells were plated on 10 cm tissue culture dishes and grown in 10% FBS DMEM.
(§2) For replication-induced senescence, cells were passaged until they lost the ability to proliferate and became senescent. NBFs were used as senescent cells after approximately 8-9 passages or 12 population doublings. HEFs were used after approximately 35 passages or 50 population doublings. HUVECs were senescent after approximately 18 passages or 24 population doublings.
For ionizing radiation-induced senescence, MEFs and HEFs were exposed to 10 Gy of ionizing irradiation in an RS 2000 X-ray Biological Irradiator (Rad Source Technologies, Inc.) at a dose rate of 1.205 Gy/min. The day after irradiation, MEFs or HEFs were passaged at a 1:3 dilution and cultured for another three days. Then these cells were plated to carry out further experiments.
For etoposide-induced senescence, MEFs were treated with 2 μM etoposide for 20 hours, and HEFs were treated with 10 μM etoposide for 12-18 hours. Three days after treatment, cells were sub-cultured at a 1:3 ratio for 72 hours in a fresh medium before further analysis.
To test the viability of senescent and non-senescent cells treated with SSK1, cells were stained with a mixture of Hoechst 33342 and propidium iodide (PI) (CA1120, Solarbio) to distinguish living and dead cells. […] The plate was incubated at 4° C. for 30 min and observed on a fluorescence microscope or automatic cell imaging system. Viable cells were quantified using a MD Image Xpress Micro XL (Molecular Devices).

[4] = test system: senescent human umbilical vein endothelial cells (HUVECs); assay: Cell viability, senescent and non-senescent HUVECs; type: cell-based; conditions: replication-induced senescent vs non-senescent HUVECs; increasing doses
Source text: as §2, §1

[5] = rhesus monkey, in vivo

CC(=O)OCC1O[C@@H](Oc2ccc(COC(=O)Nc3ccn([C@@H]4O[C@H](CO)C(O)C4(F)F)c(=O)n3)cc2[N+](=O)[O-])C(OC(C)=O)C(OC(C)=O)[C@H]1OC(C)=O (some centres unmarked) [SSK1]
Metabolism of SSK1 into gemcitabine [1]: specifically cleaved to release cytotoxic gemcitabine in senescent cells but not in non-senescent cells | Effect of GLB1 knockdown on killing of senescent cells by SSK1 [2]: impaired the ability of SSK1 to kill SA-β-gal-positive senescent cells | State of p38 MAPK (phosphorylation) (p38 MAPK): activated p38 MAPK by phosphorylation | Clearance of senescent cells ([3]; senescent HEFs induced by different stresses vs non-senescent counterparts): cleared by SSK1 | Percentage of cell viability in senescent cell populations ([3]; vehicle or treated senescent HEFs, FIG. 2F): dose dependent decrease of senescent cells | Selective killing of senescent cells (viability) [4]: selectively killed by SSK1 | UA ([5]; 0.5 mg/kg): 9 µmol/L | UA ([5]; 2 mg/kg): 10 µmol/L
